Measured values: ChEMBL document CHEMBL3400143, “Discovery and hit-to-lead optimization of 2,6-diaminopyrimidine inhibitors of interleukin-1 receptor-associated kinase 4” (Bioorg Med Chem Lett, 2015)
Calls of active or inactive are those of the source. No cut-off for these calls is given here.

Columns and labels:
[1] = biological target: T1, Interleukin-1 receptor-associated kinase 4 (Homo sapiens, UniProt Q9NWZ3); assay: Inhibition of N-terminal GST tagged human recombinant full-length IRAK4 expressed in Sf9 insect cells assessed as reduction in substrate phosphorylation using RP7030 peptide substrate and ATP incubated for 30 mins fluorescence polarization assay
T1 sequence (Q9NWZ3 whole entry): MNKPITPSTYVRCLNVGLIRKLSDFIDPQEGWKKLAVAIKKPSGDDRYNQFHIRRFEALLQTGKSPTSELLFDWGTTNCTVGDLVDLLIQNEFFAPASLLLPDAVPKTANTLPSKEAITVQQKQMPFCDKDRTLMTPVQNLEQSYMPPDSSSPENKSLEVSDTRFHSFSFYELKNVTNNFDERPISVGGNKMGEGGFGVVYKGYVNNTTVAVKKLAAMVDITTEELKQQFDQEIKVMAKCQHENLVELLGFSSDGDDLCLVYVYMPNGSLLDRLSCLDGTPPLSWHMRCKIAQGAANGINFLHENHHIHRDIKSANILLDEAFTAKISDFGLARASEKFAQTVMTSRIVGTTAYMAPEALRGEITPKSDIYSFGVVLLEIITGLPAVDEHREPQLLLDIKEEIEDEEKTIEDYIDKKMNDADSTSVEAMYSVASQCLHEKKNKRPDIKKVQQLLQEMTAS

[2] = biological target: Dual specificity protein kinase CLK4 (Homo sapiens) (UniProt Q9HAZ1); assay: Inhibition of CLK4 (unknown origin)
[3] = biological target: Receptor-type tyrosine-protein kinase FLT3 (Homo sapiens) (UniProt P36888); assay: Inhibition of FLT3 (unknown origin)
[4] = biological target: Mitogen-activated protein kinase kinase kinase kinase 4 (Homo sapiens) (UniProt O95819); assay: Inhibition of MAP4K4 (unknown origin)
[5] = biological target: High affinity nerve growth factor receptor (Homo sapiens) (UniProt P04629); assay: Inhibition of TRKA (unknown origin)
[6] = biological target: BDNF/NT-3 growth factors receptor (Homo sapiens) (UniProt Q16620); assay: Inhibition of TRKB (unknown origin)
[7] = biological target: NT-3 growth factor receptor (Homo sapiens) (UniProt Q16288); assay: Inhibition of TRKC (unknown origin)
NT-3 growth factor receptor (Homo sapiens), sequence (Q16288 32-839 limits assumed): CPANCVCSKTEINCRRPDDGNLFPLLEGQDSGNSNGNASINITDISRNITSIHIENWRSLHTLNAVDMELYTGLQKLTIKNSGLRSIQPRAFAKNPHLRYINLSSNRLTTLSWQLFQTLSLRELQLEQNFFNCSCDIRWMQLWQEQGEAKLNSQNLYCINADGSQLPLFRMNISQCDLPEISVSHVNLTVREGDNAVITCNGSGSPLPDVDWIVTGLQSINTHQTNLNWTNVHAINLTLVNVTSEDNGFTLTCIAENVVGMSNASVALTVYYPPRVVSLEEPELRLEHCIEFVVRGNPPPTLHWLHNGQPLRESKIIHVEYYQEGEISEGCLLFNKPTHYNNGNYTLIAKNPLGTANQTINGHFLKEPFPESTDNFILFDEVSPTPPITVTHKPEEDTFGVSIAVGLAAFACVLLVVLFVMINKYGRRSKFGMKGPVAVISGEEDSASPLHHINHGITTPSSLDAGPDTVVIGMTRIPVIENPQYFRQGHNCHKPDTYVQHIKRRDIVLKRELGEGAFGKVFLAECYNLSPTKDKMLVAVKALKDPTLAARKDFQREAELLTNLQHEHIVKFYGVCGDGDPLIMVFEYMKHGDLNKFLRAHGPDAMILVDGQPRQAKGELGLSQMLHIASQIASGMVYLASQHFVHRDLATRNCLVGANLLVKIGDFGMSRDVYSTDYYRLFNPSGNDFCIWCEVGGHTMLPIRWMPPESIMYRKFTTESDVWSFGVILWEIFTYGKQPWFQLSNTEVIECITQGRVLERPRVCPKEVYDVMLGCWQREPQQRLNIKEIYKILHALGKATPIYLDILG

High affinity nerve growth factor receptor (Homo sapiens), sequence (P04629 33-796 limits assumed): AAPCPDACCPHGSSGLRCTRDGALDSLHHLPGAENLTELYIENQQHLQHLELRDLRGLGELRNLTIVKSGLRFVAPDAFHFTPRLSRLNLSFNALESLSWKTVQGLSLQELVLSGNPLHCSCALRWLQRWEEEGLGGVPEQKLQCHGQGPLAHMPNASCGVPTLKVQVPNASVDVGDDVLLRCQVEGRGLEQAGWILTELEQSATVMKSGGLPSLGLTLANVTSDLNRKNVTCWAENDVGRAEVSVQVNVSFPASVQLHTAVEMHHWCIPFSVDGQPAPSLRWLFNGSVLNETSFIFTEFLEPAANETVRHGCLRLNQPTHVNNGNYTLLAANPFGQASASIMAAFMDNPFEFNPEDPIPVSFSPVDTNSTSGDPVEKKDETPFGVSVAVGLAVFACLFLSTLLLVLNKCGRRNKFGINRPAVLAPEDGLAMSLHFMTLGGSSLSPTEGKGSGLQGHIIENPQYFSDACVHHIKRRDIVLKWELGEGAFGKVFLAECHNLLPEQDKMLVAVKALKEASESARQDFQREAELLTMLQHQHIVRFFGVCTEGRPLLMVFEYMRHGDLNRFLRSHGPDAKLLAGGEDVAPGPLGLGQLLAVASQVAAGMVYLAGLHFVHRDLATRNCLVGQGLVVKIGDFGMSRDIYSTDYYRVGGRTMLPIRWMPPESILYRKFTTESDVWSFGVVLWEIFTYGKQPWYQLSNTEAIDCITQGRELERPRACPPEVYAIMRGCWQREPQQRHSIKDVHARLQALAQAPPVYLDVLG
Mitogen-activated protein kinase kinase kinase kinase 4 (Homo sapiens), sequence (O95819 2-1239 limits assumed): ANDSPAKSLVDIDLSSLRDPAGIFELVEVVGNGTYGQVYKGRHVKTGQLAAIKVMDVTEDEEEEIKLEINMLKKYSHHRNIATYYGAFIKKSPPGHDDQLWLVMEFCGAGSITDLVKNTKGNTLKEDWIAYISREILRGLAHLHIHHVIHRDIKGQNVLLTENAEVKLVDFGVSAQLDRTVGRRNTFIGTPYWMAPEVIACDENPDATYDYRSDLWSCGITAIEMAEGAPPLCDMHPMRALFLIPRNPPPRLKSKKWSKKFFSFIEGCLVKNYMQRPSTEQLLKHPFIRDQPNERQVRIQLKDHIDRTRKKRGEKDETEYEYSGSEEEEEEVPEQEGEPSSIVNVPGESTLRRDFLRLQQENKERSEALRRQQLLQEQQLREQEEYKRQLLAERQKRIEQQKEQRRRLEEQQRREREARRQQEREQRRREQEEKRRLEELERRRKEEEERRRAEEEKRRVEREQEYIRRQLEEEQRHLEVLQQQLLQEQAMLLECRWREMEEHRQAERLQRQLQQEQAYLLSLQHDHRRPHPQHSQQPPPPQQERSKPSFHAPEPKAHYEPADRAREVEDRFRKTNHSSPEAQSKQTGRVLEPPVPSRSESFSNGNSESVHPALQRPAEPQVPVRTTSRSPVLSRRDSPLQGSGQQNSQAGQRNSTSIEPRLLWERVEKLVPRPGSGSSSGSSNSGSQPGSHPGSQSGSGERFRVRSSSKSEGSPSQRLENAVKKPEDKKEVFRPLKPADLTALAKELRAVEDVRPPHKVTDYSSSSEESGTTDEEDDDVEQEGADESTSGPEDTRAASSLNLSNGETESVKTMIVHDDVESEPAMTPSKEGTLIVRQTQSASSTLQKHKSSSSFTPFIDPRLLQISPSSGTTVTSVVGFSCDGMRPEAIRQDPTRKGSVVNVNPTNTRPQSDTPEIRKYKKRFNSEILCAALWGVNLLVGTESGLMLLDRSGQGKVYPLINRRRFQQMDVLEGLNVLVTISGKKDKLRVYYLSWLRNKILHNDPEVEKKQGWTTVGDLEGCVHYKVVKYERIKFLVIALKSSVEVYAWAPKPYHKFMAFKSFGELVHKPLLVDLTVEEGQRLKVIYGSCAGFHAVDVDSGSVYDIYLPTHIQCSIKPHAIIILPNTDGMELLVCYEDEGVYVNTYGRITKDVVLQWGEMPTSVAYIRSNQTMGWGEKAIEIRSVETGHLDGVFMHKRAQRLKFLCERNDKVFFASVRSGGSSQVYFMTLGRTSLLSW
BDNF/NT-3 growth factors receptor (Homo sapiens), sequence (Q16620 32-822 limits assumed): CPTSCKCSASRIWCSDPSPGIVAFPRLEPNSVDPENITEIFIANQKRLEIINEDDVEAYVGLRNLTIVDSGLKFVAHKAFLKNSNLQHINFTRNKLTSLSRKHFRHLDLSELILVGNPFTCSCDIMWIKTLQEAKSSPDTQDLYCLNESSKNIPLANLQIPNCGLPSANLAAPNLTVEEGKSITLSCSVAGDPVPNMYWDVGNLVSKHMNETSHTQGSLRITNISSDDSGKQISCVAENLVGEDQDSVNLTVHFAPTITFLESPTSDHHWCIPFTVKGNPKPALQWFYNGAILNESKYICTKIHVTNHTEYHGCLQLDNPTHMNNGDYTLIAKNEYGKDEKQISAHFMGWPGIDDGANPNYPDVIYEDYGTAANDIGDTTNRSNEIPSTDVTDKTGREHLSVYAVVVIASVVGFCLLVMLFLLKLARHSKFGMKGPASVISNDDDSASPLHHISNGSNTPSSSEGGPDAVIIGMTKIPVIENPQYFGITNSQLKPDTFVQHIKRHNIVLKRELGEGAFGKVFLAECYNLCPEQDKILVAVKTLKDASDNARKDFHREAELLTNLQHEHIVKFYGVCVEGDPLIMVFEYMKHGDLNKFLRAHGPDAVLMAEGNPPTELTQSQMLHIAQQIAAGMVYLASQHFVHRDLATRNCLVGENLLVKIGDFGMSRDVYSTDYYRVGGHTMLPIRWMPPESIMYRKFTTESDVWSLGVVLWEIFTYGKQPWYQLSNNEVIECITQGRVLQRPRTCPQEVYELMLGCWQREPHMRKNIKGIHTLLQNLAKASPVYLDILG
Dual specificity protein kinase CLK4 (Homo sapiens), sequence (Q9HAZ1 whole entry, looked up): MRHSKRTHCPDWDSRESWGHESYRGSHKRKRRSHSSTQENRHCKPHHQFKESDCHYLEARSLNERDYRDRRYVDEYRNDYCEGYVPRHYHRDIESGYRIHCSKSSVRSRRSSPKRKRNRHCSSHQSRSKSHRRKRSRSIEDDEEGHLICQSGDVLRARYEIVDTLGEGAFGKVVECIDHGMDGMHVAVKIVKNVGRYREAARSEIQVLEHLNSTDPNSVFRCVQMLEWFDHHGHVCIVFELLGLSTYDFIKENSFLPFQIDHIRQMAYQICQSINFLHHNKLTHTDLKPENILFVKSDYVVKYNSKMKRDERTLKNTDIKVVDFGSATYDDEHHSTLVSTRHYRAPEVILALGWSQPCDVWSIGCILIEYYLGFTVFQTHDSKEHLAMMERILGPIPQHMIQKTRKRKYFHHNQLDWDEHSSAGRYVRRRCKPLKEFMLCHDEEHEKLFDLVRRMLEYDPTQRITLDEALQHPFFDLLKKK
Receptor-type tyrosine-protein kinase FLT3 (Homo sapiens), sequence (P36888 whole entry): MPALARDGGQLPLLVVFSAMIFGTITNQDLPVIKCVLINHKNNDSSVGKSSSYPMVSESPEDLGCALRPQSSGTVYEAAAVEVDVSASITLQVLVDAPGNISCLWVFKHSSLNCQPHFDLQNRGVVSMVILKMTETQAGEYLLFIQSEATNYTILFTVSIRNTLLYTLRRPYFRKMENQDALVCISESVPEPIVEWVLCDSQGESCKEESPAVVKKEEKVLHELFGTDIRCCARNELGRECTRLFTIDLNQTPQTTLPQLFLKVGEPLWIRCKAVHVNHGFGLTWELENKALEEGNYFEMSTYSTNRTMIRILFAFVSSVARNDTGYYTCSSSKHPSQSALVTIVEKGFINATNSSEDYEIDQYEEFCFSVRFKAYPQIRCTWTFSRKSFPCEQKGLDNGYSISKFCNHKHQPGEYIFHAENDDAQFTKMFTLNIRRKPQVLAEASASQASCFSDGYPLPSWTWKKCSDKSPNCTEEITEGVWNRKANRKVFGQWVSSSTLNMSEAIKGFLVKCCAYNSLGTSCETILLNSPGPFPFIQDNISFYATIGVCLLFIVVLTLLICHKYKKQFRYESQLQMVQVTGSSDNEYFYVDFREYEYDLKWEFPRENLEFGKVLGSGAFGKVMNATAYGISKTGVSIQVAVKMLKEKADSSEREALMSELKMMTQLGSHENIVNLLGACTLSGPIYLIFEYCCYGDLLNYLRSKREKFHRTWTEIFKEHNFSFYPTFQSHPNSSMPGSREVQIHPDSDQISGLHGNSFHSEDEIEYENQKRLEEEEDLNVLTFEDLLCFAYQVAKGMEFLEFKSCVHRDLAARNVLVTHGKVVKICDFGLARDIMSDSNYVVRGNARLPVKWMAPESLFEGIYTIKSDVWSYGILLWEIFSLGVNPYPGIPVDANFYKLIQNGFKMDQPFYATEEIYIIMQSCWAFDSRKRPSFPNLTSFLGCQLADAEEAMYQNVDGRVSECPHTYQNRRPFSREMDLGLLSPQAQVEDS

| Structure (SMILES) | IC50 [1] [µM] | inhibition [2] | inhibition [3] | inhibition [4] | inhibition [5] | inhibition [6] | inhibition [7] |
| --- | --- | --- | --- | --- | --- | --- | --- |
| CCc1nc(N)nc(N[C@@H]2C[C@H](CO)[C@@H](O)[C@H]2O)c1-c1nc2ccccc2s1 | 6.85 | Active | Active | Active | Active | Active | Active |
| Nc1ncc(-c2nc3ccccc3s2)c(N[C@@H]2C[C@H](CO)[C@@H](O)[C@H]2O)n1 | 0.24 | Active | Active | Active | Active | Active | Active |
| Nc1ncc(-c2ccccc2)c(N[C@@H]2C[C@H](CO)[C@@H](O)[C@H]2O)n1 | > 20 | Active | Active | Active | Active | Active | Active |
| Nc1nc(N)c(-c2nc3ccccc3s2)c(N[C@@H]2C[C@H](CO)[C@@H](O)[C@H]2O)n1 | 5.19 | Active | Active | Active | Active | Active | Active |

Now from value to molecule:

| IC50 [1] [µM] | inhibition [2] | inhibition [3] | inhibition [4] | inhibition [5] | inhibition [6] | inhibition [7] | Structure (SMILES) |
| --- | --- | --- | --- | --- | --- | --- | --- |
| 0.17 | Active | Active | Active | Active | Active | Active | Nc1nc(Cl)c(-c2nc3ccccc3s2)c(N[C@@H]2C[C@H](CO)[C@@H](O)[C@H]2O)n1 |
| > 20 | Active | Active | Active | Active | Active | Active | Nc1ncc(-c2ncc(-c3ccccc3)s2)c(N[C@@H]2C[C@H](CO)[C@@H](O)[C@H]2O)n1 |
| 0.83 | Active | Active | Active | Active | Active | Active | Nc1ncc(-c2ccccn2)c(N[C@@H]2C[C@H](CO)[C@@H](O)[C@H]2O)n1 |
| 3.01 | Active | Active | Active | Active | Active | Active | OC[C@H]1C[C@@H](Nc2nc(NC3CCCCC3)ncc2-c2nc3ccccc3s2)[C@H](O)[C@@H]1O |
